Reference: patent US8754079B2, “Cycloalkyl containing thienopyrimidines for pharmaceutical compositions” (Boehringer Ingelheim International GmbH, priority 2010, dated 2014)
Where “and” joins values, the source holds several entries; their conditions need not be identical. Equal entries are not always repeated.

Biological target: T1, MNK2 (Homo sapiens, UniProt Q9HBH9)
T1 construct: the open reading frames of human Mnk1 and Mnk2a were amplified from cDNA; made in house; host or cells: E. coli BL21
T1 sequence (Q9HBH9 whole entry): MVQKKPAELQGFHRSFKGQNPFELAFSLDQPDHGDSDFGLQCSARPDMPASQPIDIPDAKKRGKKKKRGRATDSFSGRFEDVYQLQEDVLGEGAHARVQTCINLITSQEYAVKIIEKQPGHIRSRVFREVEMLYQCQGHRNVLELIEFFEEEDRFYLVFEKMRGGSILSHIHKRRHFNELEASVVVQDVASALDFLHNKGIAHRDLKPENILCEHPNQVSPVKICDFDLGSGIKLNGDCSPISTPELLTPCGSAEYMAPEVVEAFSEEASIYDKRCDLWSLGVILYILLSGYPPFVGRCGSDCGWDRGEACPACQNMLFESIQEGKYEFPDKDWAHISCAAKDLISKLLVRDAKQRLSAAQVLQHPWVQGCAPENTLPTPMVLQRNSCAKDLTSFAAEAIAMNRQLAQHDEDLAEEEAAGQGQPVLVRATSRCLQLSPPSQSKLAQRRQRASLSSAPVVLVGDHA
Assay: Mnk2a in vitro kinase assay (indirect fluorescence polarization)
Format: biochemical
Conditions: pre-activated GST-Mnk2a 2.5 nM, 20 μM ATP, 30 μM substrate peptide
How it was run: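 Human GST-Mnk2a was expressed in E. coli and activated in vitro with 150 nM pre-activated ERK2 and 50 μM ATP in HEPES pH 7.4/MgCl2 buffer (45 min, 30 °C). Activity on an eIF4E Ser209-derived 12mer peptide was read by competitive fluorescence polarization with a phospho-specific antibody.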
Work on `CO[C@H]1CCC[C@@H](Oc2ncccc2Nc2ncnc3sc(C(=O)NCCN4CCCCC4)c(C)c23)C1` (racemic) [Example 124] yielded an IC50 of 36 nM. In the case of `Cc1c(C(=O)NC2CCN(C)CC2)sc2ncnc(Nc3ccc(F)cc3OC3CCCCC3O)c12` (single isomer, unassigned) [Example 259], the IC50 is reported as 346 nM. Work on `Cc1c(C(N)=O)sc2ncnc(Nc3ccc(F)cc3O[C@@H]3C[C@@H]4OC(C)(C)O[C@@H]4C3)c12` [Example 220] yielded an IC50 of 390 nM. With `COCCN[C@H]1CC[C@H](Oc2cc(F)ccc2Nc2ncnc3sc(C(N)=O)c(C)c23)CC1` [Example 24, 4-(4-Fluoro-2-(trans-4-(2-methoxyethylamino)cyclohexyloxy)phenylamino)-5-methylthieno[2,3-d]pyrimidine-6-amide] the IC50 was 14 nM. `CC(=O)N[C@H]1CC[C@H](Oc2cc(F)ccc2Nc2ncnc3sc(C(=O)N[C@@H]4C[C@H]4N)c(C)c23)C1` [Example 238] gave an IC50 of 31 nM. `CO[C@@H]1CCC[C@@H](Oc2ncccc2Nc2ncnc3sc(C(=O)NCC4CNCCO4)c(C)c23)C1` (relative stereo) [Example 140] gave an IC50 of 49 nM. In the case of `Cc1c(C(=O)O)sc2ncnc(Nc3ccc(F)cc3O[C@H]3CCCC[C@H]3O)c12` (single isomer, unassigned) [Example 262, 4-[4-fluoro-2-(cis-2-hydroxy-cyclohexyloxy)-phenylamino]-5-methyl-thieno[2,3-d]pyrimidine-6-carboxylic acid], the IC50 is reported as 23 nM. In the case of `COC1CCCC(Oc2cc(F)ccc2Nc2ncnc3sc(C(=O)NC4CC4N)c(C)c23)C1` (stereo not drawn) [Example 90], the IC50 is reported as 34 nM. With `Cc1c(C(=O)NCCCN(C)C)sc2ncnc(Nc3ccc(F)cc3OC3CCC(F)(F)CC3)c12` [Example 34, 4-[2-(4,4-Difluoro-cyclohexyloxy)-4-fluoro-phenylamino]-5-methyl-thieno[2,3-d]pyrimidine-6-carboxylic acid (3-dimethylamino-propyl)-amide] the IC50 was 28 nM. Work on `Cc1c(C(=O)NCc2cnco2)sc2ncnc(Nc3ccc(F)cc3O[C@H]3CC[C@H](O)CC3)c12` [Example 162] yielded an IC50 of 10 nM. Compound `CO[C@H]1CCC[C@@H](Oc2ncccc2Nc2ncnc3sc(C(=O)NCCCO)c(C)c23)C1` (relative stereo) [Example 126] has an IC50 of 23 nM. Work on `COC1CCCC(Oc2cc(F)ccc2Nc2ncnc3sc(C(=O)NCCCN(C)C)c(C)c23)C1` (stereo not drawn) [Example 108] yielded an IC50 of 19 nM. With `Cc1c(C(=O)NCCO)sc2ncnc(Nc3ccc(F)cc3O[C@H]3CC[C@H](O)CC3)c12` [Example 155] the IC50 was 9 nM. For `CCCNC(=O)c1sc2ncnc(Nc3cccnc3O[C@H]3CC[C@H](N)CC3)c2c1C` [Example 289, 4-[2-(4-Amino-cyclohexyloxy)-pyridin-3-ylamino]-5-methyl-thieno[2,3-d]pyrimidine-6-carboxylic acid propyl amide], the IC50 was 2 nM. Compound `CO[C@H]1CCCC[C@@H]1Oc1cc(F)ccc1Nc1ncnc2sc(C(=O)NCCCN(C)C)c(C)c12` [Example 43, 4-[4-Fluoro-2-((1S,2S)-2-methoxy-cyclohexyloxy)-phenylamino]-5-methyl-thieno[2,3-d]pyrimidine-6-carboxylic acid (3-dimethylamino-propyl)-amide] has an IC50 of 360 nM. In the case of `CO[C@@H]1CCCC[C@H]1Oc1cc(F)ccc1Nc1ncnc2sc(C(=O)O)c(C)c12` [Example 248, 4-[4-Fluoro-2-((1R,2R)-2-methoxy-cyclohexyloxy)-phenylamino]-5-methyl-thieno[2,3-d]pyrimidine-6-carboxylic acid], the IC50 is reported as 10 nM. `CC(=O)N[C@H]1C[C@H](Oc2cc(F)ccc2Nc2ncnc3sc(C(=O)O)c(C)c23)C1` [Example 35.2, 4-[2-(trans-3-Acetylamino-cyclobutoxy)-4-fluoro-phenylamino]-5-methyl-thieno[2,3-d]pyrimidine-6-carboxylic acid] gave an IC50 of 23 nM. Work on `CO[C@H]1CC[C@H](Oc2cc(F)ccc2Nc2ncnc3sc(C(=O)NCc4cnco4)c(C)c23)CC1` [Example 185] yielded an IC50 of 17 nM. With `CONC(=O)c1sc2ncnc(Nc3ccc(F)cc3O[C@H]3C[C@H](NC(C)=O)C3)c2c1C` [Example 38] the IC50 was 70 nM. With `CN[C@H]1CCC[C@@H](Oc2cc(F)ccc2Nc2ncnc3sc(C(N)=O)c(C)c23)C1` (relative stereo) [Example 17, 4-(4-Fluoro-2-(cis-3-(N-methylamino)cyclohexyloxy)phenylamino)-5-methylthieno[2,3-d]pyrimidine-6-carboxamide] the IC50 was 28 nM. Compound `CO[C@@H]1C[C@H](OC)C[C@H](Oc2cc(F)ccc2Nc2ncnc3sc(C(N)=O)c(C)c23)C1` [Example 29] has an IC50 of 90 nM. With `Cc1c(C(=O)NC(C)C)sc2ncnc(Nc3cccnc3O[C@H]3CC[C@H](N)CC3)c12` [Example 287] the IC50 was 5 nM. `Cc1c(C(=O)NCCCN(C)C)sc2ncnc(Nc3ccc(F)cc3O[C@@H]3CCCC[C@H]3O)c12` [Example 53, 4-[4-Fluoro-2-((1R,2R)-2-hydroxy-cyclohexyloxy)-phenylamino]-5-methyl-thieno[2,3-d]pyrimidine-6-carboxylic acid (3-dimethylamino-propyl)-amide] showed an IC50 of 54 nM. In the case of `COC(=O)N[C@H]1CCC[C@@H]1Oc1cc(F)ccc1Nc1ncnc2sc(C(N)=O)c(C)c12` [Example 294], the IC50 is reported as 183 nM. In the case of `Cc1c(C(=O)NCCN2CCCCC2)sc2ncnc(Nc3ccc(F)cc3O[C@@H]3CCC[C@@H](O)C3)c12` (racemic) [Example 72], the IC50 is reported as 23 nM. `CO[C@H]1CCC[C@@H](Oc2cc(F)ccc2Nc2ncnc3sc(C(=O)NCCCN4CCCC4)c(C)c23)C1` (racemic) [Example 106] gave an IC50 of 22 nM. In the case of “4-(4-fluoro-2-(cis-3-hydroxycyclopentyloxy)phenylamino)-5-methylthieno[2,3-d]pyrimidine-6-carboxamide and 4-(4-fluoro-2-(trans-3-hydroxycyclopentyloxy)phenylamino)-5-methylthieno[2,3-d]pyrimidine-6-carboxamide [Example 242]”, the IC50 is reported as 5 nM and 4 nM. In the case of `Cc1c(C(=O)NCC2CNCCO2)sc2ncnc(Nc3ccc(F)cc3O[C@H]3CC[C@H](O)CC3)c12` (stereo partly drawn) [Example 166], the IC50 is reported as 11 nM. Compound `CC(=O)N[C@H]1C[C@H](Oc2cc(F)ccc2Nc2ncnc3sc(C(=O)NCC#N)c(C)c23)C1` [Example 241, 4-[2-(trans-3-Acetylamino-cyclobutoxy)-4-fluoro-phenylamino]-5-methyl-thieno[2,3-d]pyrimidine-6-carboxylic acid cyanomethyl-amide] has an IC50 of 49 nM. In the case of `CO[C@@H]1CCCC[C@H]1Oc1cc(F)ccc1Nc1ncnc2sc(C(=O)N[C@@H]3CCC[C@H]3O)c(C)c12` [Example 251], the IC50 is reported as 20 nM. Compound `COC(=O)c1sc2ncnc(Nc3ccc(F)cc3O[C@@H]3CCCC[C@H]3OC)c2c1C` [Example 247, 4-[4-Fluoro-2-((1R,2R)-2-methoxy-cyclohexyloxy)-phenylamino]-5-methyl-thieno[2,3-d]pyrimidine-6-carboxylic acid methyl ester] has an IC50 of 139 nM. `Cc1c(C(N)=O)sc2ncnc(Nc3ccc(F)cc3O[C@@H]3CCC[C@@H](O)C3)c12` (racemic) [Example 58, Racemic 4-[4-Fluoro-2-((trans)-3-hydroxy-cyclohexyloxy)-phenylamino]-5-methyl-thieno[2,3-d]pyrimidine-6-carboxylic acid amide] gave an IC50 of 6 nM. With `CO[C@@H]1CCC[C@@H](Oc2ncccc2Nc2ncnc3sc(C(=O)NCCCN4CCCC4)c(C)c23)C1` (racemic) [Example 148] the IC50 was 49 nM. For `Cc1c(C(=O)NCCN2CCCCC2)sc2ncnc(Nc3ccc(F)cc3O[C@H]3CC[C@H](O)CC3)c12` [Example 170], the IC50 was 19 nM. Compound `CC(=O)N[C@H]1C[C@H](Oc2cc(F)ccc2Nc2ncnc3sc(C(=O)NCCCN(C)C)c(C)c23)C1` [Example 36] has an IC50 of 66 nM. `Cc1c(C(=O)NCCCN2CCCC2)sc2ncnc(Nc3ccc(F)cc3O[C@H]3CCC[C@H](O)C3)c12` [Example 75] showed an IC50 of 18 nM. Work on `CO[C@@H]1CCC[C@@H](Oc2ncccc2Nc2ncnc3sc(C(=O)NCCO)c(C)c23)C1` (relative stereo) [Example 143] yielded an IC50 of 77 nM. With `COC(=O)c1sc2ncnc(Nc3cccnc3O[C@H]3CC[C@H](N)CC3)c2c1C` [Example 281, 4-[2-(4-Amino-cyclohexyloxy)-pyridin-3-ylamino]-5-methyl-thieno[2,3-d]pyrimidine-6-carboxylic acid methyl ester] the IC50 was 66 nM. Compound `COC(=O)[C@H](CO)NC(=O)c1sc2ncnc(Nc3ccc(F)cc3O[C@H]3CC[C@H](OC)CC3)c2c1C` (relative stereo) [Example 272, 2-({-4-[4-Fluoro-2-(trans-4-methoxy-cyclohexyloxy)-phenylamino]-5-methyl-thieno[2,3-d]pyrimidine-6-carbonyl}-amino)-3-hydroxy-propionic acid methyl ester] has an IC50 of 33 nM. Compound `Cc1c(C(N)=O)sc2ncnc(Nc3ccc(F)cc3O[C@H]3CC[C@H](N4CCOCC4)CC3)c12` [Example 26, 4-(4-Fluoro-2-(trans-4-morpholinocyclohexyloxy)phenylamino)-5-methylthieno[2,3-d]pyrimidine-6-carboxamide] has an IC50 of 82 nM. `Cc1c(C(N)=O)sc2ncnc(Nc3ccc(F)cc3O[C@@H]3CC[C@H](O)[C@@H]3O)c12` (relative stereo) [Example 223] gave an IC50 of 18 nM.

Test system: Mnk2 (Mnk2a or Mnk2b) or Mnk1
Assay: not given
Conditions: addition to cell culture cells transfected with Mnk2 (Mnk2a or Mnk2b) or Mnk1; cited from earlier work
For `Nc1ncnc2n[nH]c(Nc3ccc(F)cc3)c12` [CGP57380], the “reduction of phosphorylated eIF4E” value is given as “strong reduction”.
